Test results published in publication PMC8286840, “Identifying SARS-CoV-2 antiviral compounds by screening for small molecule inhibitors of Nsp3 papain-like protease” (Biochemical Journal, 2021).
Structures can show the parent of a compound that is named as a salt. Where two headings read alike, the source gives them in different places.

What was measured:
[1] = target: T1, SARS-CoV-2 PLpro (nsp3 1564–1878) (Severe acute respiratory syndrome coronavirus 2, UniProt P0DTD1); assay: biochemical; set-up: FRET-quenched peptide (Pro3) cleavage by PLpro, 10 min pre-incubation, slope over 20 min, normalised to no-compound control; conditions: low concentration screen, read-out: % of control remaining
[2] = target: T1, SARS-CoV-2 PLpro (nsp3 1564–1878); assay: biochemical; set-up: FRET-quenched peptide (Pro3) cleavage by PLpro, 10 min pre-incubation, slope over 20 min, normalised to no-compound control; conditions: high concentration screen, read-out: % of control remaining

O=C1NC(=O)c2c1c1c3ccccc3[nH]c1c1[nH]c3ccccc3c21 [Arcyriaflavin A - 12,13-Dihydro-5H-indolo[2,3-a]pyrrolo[3,4-c]carbazole-5,7(6H)-dione]
remaining activity at 1.25 µM ([1]; Well no.=2532): 102%
remaining activity at 3.75 µM ([2]; Well no.=2532): 100%

Cc1nnc(C(C)C)n1[C@@H]1C[C@H]2CC[C@@H](C1)N2CC[C@H](NC(=O)C1CCC(F)(F)CC1)c1ccccc1 [Maraviroc]
remaining activity at 1.25 µM ([1]; Well no.=4678): 103%
remaining activity at 1.25 µM ([1]; Well no.=8691): 101%
remaining activity at 3.75 µM ([2]; Well no.=4678): 100%
remaining activity at 3.75 µM ([2]; Well no.=8691): 102%

C#CCN[C@@H]1CCc2ccccc21 [TVP1022]
remaining activity at 1.25 µM ([1]; Well no.=5527): 101%
remaining activity at 3.75 µM ([2]; Well no.=5527): 112%

CCCCCCCC(=O)OC[C@H](CO)OC(=O)CCCCCCC [1,2-Dioctanoyl-SN-glycerol]
remaining activity at 1.25 µM ([1]; Well no.=4476): 103%
remaining activity at 3.75 µM ([2]; Well no.=4476): 107%

CC(C)C[C@H](NC(=O)CNC(=O)[C@H](Cc1ccc(O)cc1)NC(=O)[C@H](CO)NC(=O)[C@H](Cc1c[nH]c2ccccc12)NC(=O)[C@H](Cc1cnc[nH]1)NC(=O)[C@@H]1CCC(=O)N1)C(=O)N[C@@H](CCCNC(=N)N)C(=O)N1CCC[C@H]1C(=O)NCC(N)=O [Gonadorelin (acetate)]
remaining activity at 1.25 µM ([1]; Well no.=6276): 104%
remaining activity at 3.75 µM ([2]; Well no.=6276): 106%

Cc1ccc(CN2C(=O)S/C(=C\c3ccc(Cl)cc3)C2=O)cc1 [(5Z)-5-(4-chlorobenzylidene)-3-(4-methylbenzyl)-1,3-thiazolidine-2,4-dione]
remaining activity at 1.25 µM ([1]; Well no.=6027): 94.6%
remaining activity at 3.75 µM ([2]; Well no.=6027): 94.7%

C[C@](N)(Cc1ccc(O)c(O)c1)C(=O)O [L-alpha-Methyl DOPA]
remaining activity at 1.25 µM ([1]; Well no.=1039): 97.7%
remaining activity at 3.75 µM ([2]; Well no.=1039): 98.3%

CC(C)CN(C[C@@H](O)[C@H](Cc1ccccc1)NC(=O)O[C@H]1CO[C@H]2OCC[C@H]21)S(=O)(=O)c1ccc(N)cc1 [Darunavir (Ethanolate)]
remaining activity at 1.25 µM ([1]; Well no.=8504): 98.9%
remaining activity at 3.75 µM ([2]; Well no.=8504): 90.4%

O=C(Nc1ccccc1)[C@@]12C[C@@H]1/C(=N\O)c1ccccc1O2 [PHCCC]
remaining activity at 1.25 µM ([1]; Well no.=8571): 107%
remaining activity at 3.75 µM ([2]; Well no.=8571): 105%

CNC(=N)NCCC[C@H](N)C(=O)O [NG-Monomethyl-L-arginine acetate]
remaining activity at 1.25 µM ([1]; Well no.=886): 102%
remaining activity at 3.75 µM ([2]; Well no.=886): 103%

C[C@]12CC[C@H](O)C[C@@H]1CC[C@@H]1[C@@H]2CC[C@]2(C)C(=O)CC[C@@H]12 [Epiandrosterone]
remaining activity at 1.25 µM ([1]; Well no.=6441): 103%
remaining activity at 3.75 µM ([2]; Well no.=6441): 103%

CC(=O)NC[C@H]1CN(c2ccc(N3CCOCC3)c(F)c2)C(=O)O1 [Linezolid]
remaining activity at 1.25 µM ([1]; Well no.=1782): 102%
remaining activity at 3.75 µM ([2]; Well no.=1782): 98.8%

CO/N=C(\C(=O)N[C@@H]1C(=O)N2C(C(=O)[O-])=C(C[N+]3(C)CCCC3)CS[C@H]12)c1csc(N)n1 [Cefepime]
remaining activity at 1.25 µM ([1]; Well no.=1842): 90%
remaining activity at 3.75 µM ([2]; Well no.=1842): 88.2%

CCCCOC(=O)NC(=O)C1c2ccccc2Oc2ccccc21 [Ro 67-4853]
remaining activity at 1.25 µM ([1]; Well no.=5989): 102%
remaining activity at 3.75 µM ([2]; Well no.=5989): 99.5%

CC[C@H]1OC(=O)[C@H](C)[C@@H](O[C@H]2C[C@@](C)(OC)[C@@H](O)[C@H](C)O2)[C@H](C)[C@@H](O[C@@H]2O[C@H](C)C[C@H](N(C)C)[C@H]2O)[C@](C)(O)C[C@@H](C)/C(=N\OCOCCOC)[C@H](C)[C@@H](O)[C@]1(C)O [Roxithromycin]
remaining activity at 1.25 µM ([1]; Well no.=2237): 101%
remaining activity at 3.75 µM ([2]; Well no.=2237): 102%

CCCCCCCCCCC1=C(C)C(=O)C(OC)=C(OC)C1=O [Decylubiquinone]
remaining activity at 1.25 µM ([1]; Well no.=3245): 100%
remaining activity at 3.75 µM ([2]; Well no.=3245): 99.1%

O=C1C[C@@H](c2ccc(O)c(O)c2)Oc2cc(O)cc(O)c21 [Eriodictyol]
remaining activity at 1.25 µM ([1]; Well no.=3259): 104%
remaining activity at 3.75 µM ([2]; Well no.=3259): 103%

N=C(N)NCCCCN [Agmatine sulfate]
remaining activity at 1.25 µM ([1]; Well no.=261): 93.6%
remaining activity at 3.75 µM ([2]; Well no.=261): 96.2%

Cc1cc(C(=O)Nc2cccc(C(=O)Nc3cccc(C(F)(F)F)c3)c2)on1 [T56-LIMKi]
remaining activity at 1.25 µM ([1]; Well no.=5920): 101%
remaining activity at 3.75 µM ([2]; Well no.=5920): 98.1%

O=c1[nH]c(=O)n([C@H]2C[C@H](O)[C@@H](CO)O2)cc1F [Floxuridine]
remaining activity at 1.25 µM ([1]; Well no.=2124): 98.1%
remaining activity at 1.25 µM ([1]; Well no.=8010): 88%
remaining activity at 3.75 µM ([2]; Well no.=2124): 102%
remaining activity at 3.75 µM ([2]; Well no.=8010): 86.4%

O=P(O)(O)C(Cl)(Cl)P(=O)(O)O [Clodronic acid]
remaining activity at 1.25 µM ([1]; Well no.=737): 95.6%
remaining activity at 1.25 µM ([1]; Well no.=1862): 92.6%
remaining activity at 3.75 µM ([2]; Well no.=737): 96.9%
remaining activity at 3.75 µM ([2]; Well no.=1862): 90.7%

Nc1ccccc1NC(=O)CCCCCCC(=O)Nc1ccccc1 [BML-210]
remaining activity at 1.25 µM ([1]; Well no.=5799): 105%
remaining activity at 3.75 µM ([2]; Well no.=5799): 104%

C[C@]12CCC(=O)C(O)=C1CC[C@@H]1[C@@H]2CC[C@]2(C)C(=O)CC[C@@H]12 [Formestane]
remaining activity at 1.25 µM ([1]; Well no.=2134): 99.1%
remaining activity at 3.75 µM ([2]; Well no.=2134): 101%

CCC(C)(C)c1ccc(CC(C)CN2C[C@@H](C)O[C@@H](C)C2)cc1 (stereo partly shown) [Amorolfine]
remaining activity at 1.25 µM ([1]; Well no.=1748): 99%
remaining activity at 3.75 µM ([2]; Well no.=1748): 101%

C#Cc1cccc(Nc2ncnc3cc(OCCOC)c(OCCO)cc23)c1 [OSI-420]
remaining activity at 1.25 µM ([1]; Well no.=4822): 99.2%
remaining activity at 1.25 µM ([1]; Well no.=5152): 102%
remaining activity at 3.75 µM ([2]; Well no.=4822): 101%
remaining activity at 3.75 µM ([2]; Well no.=5152): 97.4%

C=CC[C@@H]1/C=C(\C)C[C@H](C)C[C@H](OC)[C@H]2O[C@@](O)(C(=O)C(=O)N3CCCC[C@H]3C(=O)O[C@H](/C(C)=C/[C@@H]3CC[C@@H](O)[C@H](OC)C3)[C@H](C)[C@@H](O)CC1=O)[C@H](C)C[C@@H]2OC [FK-506 (Tacrolimus)]
remaining activity at 1.25 µM ([1]; Well no.=5168): 94%
remaining activity at 3.75 µM ([2]; Well no.=5168): 97.7%

C=CCN1CC[C@]23c4c5ccc(O)c4O[C@H]2/C(=N/N=C2\CC[C@@]4(O)[C@H]6Cc7ccc(O)c8c7[C@@]4(CCN6CC=C)[C@H]2O8)CC[C@@]3(O)[C@H]1C5 [Naloxonazine dihydrochloride]
remaining activity at 1.25 µM ([1]; Well no.=894): 105%
remaining activity at 3.75 µM ([2]; Well no.=894): 107%

Cc1ccc(Nc2nccc(N(C)c3ccc4c(C)n(C)nc4c3)n2)cc1S(N)(=O)=O [Pazopanib]
remaining activity at 1.25 µM ([1]; Well no.=2841): 103%
remaining activity at 3.75 µM ([2]; Well no.=2841): 103%

Nc1ncnc2c1nc(N)n2[C@@H]1O[C@H](CO)[C@@H](O)[C@H]1O [(2R,3R,4S,5R)-2-(6,8-diamino-9H-purin-9-yl)-5-(hydroxymethyl)tetrahydrofuran-3,4-diol]
remaining activity at 1.25 µM ([1]; Well no.=5532): 106%
remaining activity at 3.75 µM ([2]; Well no.=5532): 105%

O=C(NCCCNc1nc(Nc2cccc(NC(=O)N3CCCC3)c2)ncc1I)c1cccs1 [BX795]
remaining activity at 1.25 µM ([1]; Well no.=2931): 99%
remaining activity at 3.75 µM ([2]; Well no.=2931): 99.2%

Cc1cccc(C#Cc2ccccc2)n1 [MPEP (Hydrochloride)]
remaining activity at 1.25 µM ([1]; Well no.=8541): 96.2%
remaining activity at 3.75 µM ([2]; Well no.=8541): 90.4%
